Key:
[1] = target: human growth hormone secretagogue receptor (hGHS-R1a) (Homo sapiens, UniProt Q92847); assay: Competitive radioligand binding assay (ghrelin receptor), standard method A; conditions: binding activity at the human ghrelin receptor, standard method A
[2] = Pharmacokinetic analysis (oral bioavailability, elimination half-life) in the rat; type: in vivo; conditions: oral administration, 8 mg/kg dose, HPLC-MS
Excerpt: D. Pharmacokinetic Analysis of Representative Compounds of the Invention
The pharmacokinetic behavior of compound of the invention can be ascertained by methods well known to those skilled in the art. (Wilkinson, G. R. “Pharmacokinetics: The Dynamics of Drug Absorption, Distribution, and Elimination” in Goodman & Gilman's The Pharmacological Basis of Therapeutics, Tenth Edition, Hardman, J. G.; Limbird, L. E., Eds., McGraw Hill, Columbus, Ohio, 2001, Chapter 1.) The following method was used to investigate the pharmacokinetic parameters (elimination half-life, total plasma clearance, etc.) for intravenous, subcutaneous and oral administration of compounds of the present invention. See also U.S. patent application Ser. No. 11/149,512 and Ser. No. 11/149,731 and Intl. Pat. Appl. No. PCT/US2007/017905.
The table below presents oral bioavailability and elimination half-life data in the rat for representative compounds of the present invention. The parameters were determined by HPLC-MS after oral administration of an 8 mg/kg dose of the compound, except for compound 822 where a 2 mg/kg dose was used.

[3] = tested on: fasted rats; assay: Gastric emptying in fasted rat model, standard method E; type: in vivo; conditions: average where repeated
Method: E. Gastric Emptying in Fasted Rat Model
To examine the effects of compounds of the invention in a model for gastroparesis, compounds were evaluated for possible effects on gastric emptying in fasted rats. This model is used to determine the potential of compounds of the invention to promote motility in fasted rats.
• 1. Overnight-fasted rats (male, Wistar, 200 g, n=5/group) were given a meal (2 mL) of methylcellulose (2%) by intragastric gavage. The meal was labeled with phenol red (0.05%). • 2. Test articles (dosed at various concentrations, typically 1, 3, 10, 30 mg/kg), vehicle and positive control (metoclopramide, a 5-HT ligand and prokinetic agent currently prescribed for the treatment of GI disorders, including gastroparesis) were administered by oral gavage immediately after the meal (time=0). • 3. […] Total phenol red remaining in the stomach was quantified by a colorimetric method at 560 nm. • 5. A 30% or more increase in gastric emptying (as compared to the vehicle control) was considered significant. • 6. One-way ANOVA, Dunnet's post-hoc statistical test was applied Results
The effects of representative compounds of the invention in the rat gastric emptying model described in standard method E are provided in the following table. In cases where an experiment was conducted multiple times, the average of the individual results is presented.

[4] = tested on: human plasma; assay: Plasma protein binding, human plasma (equilibrium dialysis); type: in vitro ADME
Excerpt: J. Plasma Protein Binding
The pharmacokinetic and pharmacodynamic properties of drugs are largely a function of the reversible binding of drugs to plasma or serum proteins such as albumin and α1-acid glycoprotein. In general, only unbound drug is available for diffusion or transport across cell membranes, and for interaction at the pharmacological target. On the other hand, drugs with low plasma protein binding generally have large volumes of distribution and rapid clearance since only unbound drug is available for glomerular filtration and, in some cases, hepatic clearance. Thus, the extent of plasma protein binding can influence efficacy, distribution and elimination. The ideal range for plasma protein binding is in the range of 87-98% for most drug products.
Protein binding studies were performed using human plasma. Briefly, 96-well microplates were used to incubate various concentrations of the test article for 60 min at 37° C. Bound and unbound fractions are separated by equilibrium dialysis, where the concentration remaining in the unbound fraction is quantified by LC-MS or LC-MS-MS analysis. […].
The table below presents protein binding data for representative compounds of the present invention in both human and rat plasma.

[5] = tested on: rat plasma; assay: Plasma protein binding, rat plasma; type: in vitro ADME
[6] = target: GHS-R1a receptor (human ghrelin receptor) (Homo sapiens, UniProt Q92847); assay: Aequorin functional assay (ghrelin receptor), standard method B; type: cell-based; conditions: functional activity at the human ghrelin receptor, standard method B (Aequorin)
Excerpt: B. Aequorin Functional Assay (Ghrelin Receptor)
See also U.S. patent application Ser. Nos. 11/149,512 and 11/149,731. (LePoul, E.; et al. J. Biomol. Screen. 2002, 7, 57-65; Bednarek, M. A.; et al. J. Med. Chem. 2000, 43, 4370-4376; Palucki, B. L.; et al. Bioorg. Med. Chem. Lett. 2001, 11, 1955-1957.) Functional activity at the gherlin receptor for representative compounds of the present invention is presented in the Examples.

Chain of human growth hormone secretagogue receptor (hGHS-R1a) (Q92847 whole entry): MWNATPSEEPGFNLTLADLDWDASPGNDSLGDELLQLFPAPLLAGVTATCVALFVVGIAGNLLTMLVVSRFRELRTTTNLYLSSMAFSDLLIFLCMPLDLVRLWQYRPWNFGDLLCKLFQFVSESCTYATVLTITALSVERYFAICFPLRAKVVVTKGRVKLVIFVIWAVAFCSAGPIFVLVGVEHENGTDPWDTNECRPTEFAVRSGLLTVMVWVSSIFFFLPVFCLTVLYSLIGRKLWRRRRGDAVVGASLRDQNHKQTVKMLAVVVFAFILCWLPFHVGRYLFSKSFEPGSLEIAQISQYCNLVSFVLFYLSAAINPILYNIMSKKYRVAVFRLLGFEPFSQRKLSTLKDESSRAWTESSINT
Chain of GHS-R1a receptor (human ghrelin receptor) (Q92847 whole entry): as above

SMILES: CC(C)CC1NC(=O)C(C)N(C)C(=O)C(C2CC2)NC(C)C(C)Oc2ccccc2CCCNC1=O (stereo not drawn) [Compound 819]
- Ki [1]: ≤ 10 nM
- Elimination Half-life (t1/2, rat, min) [2]: 116 min
- Oral Bioavailability (rat, % F) [2]: 12 % F
- Percent Increase in Gastric Emptying After Oral Administration ([3]; dose 1 mg/kg): 9%
- Percent Increase in Gastric Emptying After Oral Administration ([3]; dose 3 mg/kg): 21%
- Percent Increase in Gastric Emptying After Oral Administration ([3]; dose 10 mg/kg): 18%
- Human Plasma Protein Binding (%) ([4]; test concentration 3 μg/mL): 95.2%
- Rat Plasma Protein Binding (%) ([5]; test concentration 3 μg/mL): 98.2%

SMILES: CC1CNC(C2CC2)C(=O)N(C)C(C)C(=O)NC(Cc2ccc(O)c(F)c2)C(=O)NCCCC2CCCCC2O1 (mixture of isomers) [Compound 832]
- Ki [1]: ≤ 1 nM
- Percent Increase in Gastric Emptying After Oral Administration ([3]; dose 3 mg/kg): 13%
- Human Plasma Protein Binding (%) ([4]; test concentration 3 μg/mL): 88.9%
- Rat Plasma Protein Binding (%) ([5]; test concentration 3 μg/mL): 97.3%

SMILES: CC(C)C[C@H]1NC(=O)[C@@H](C)N(C)C(=O)[C@H](C2CC2)NC[C@H]2CCc3cccc(c3O2)CCCNC1=O [Compound 802]
- Ki [1]: ≤ 100 nM
- EC50 [6]: ≤ 100 nM
- Elimination Half-life (t1/2, rat, min) [2]: 160 min
- Oral Bioavailability (rat, % F) [2]: 26 % F
- Percent Increase in Gastric Emptying After Oral Administration ([3]; dose 1 mg/kg): 12%
- Percent Increase in Gastric Emptying After Oral Administration ([3]; dose 3 mg/kg): 11%
- Percent Increase in Gastric Emptying After Oral Administration ([3]; dose 10 mg/kg): 26%
- Human Plasma Protein Binding (%) ([4]; test concentration 1 μg/mL): 93.4%
- Rat Plasma Protein Binding (%) ([5]; test concentration 1 μg/mL): 99.8%

SMILES: CC1CNC(C2CC2)C(=O)N(C)C(C)C(=O)NC(CC(C)(C)C)C(=O)NCCCC2CCCCC2O1 (mixture of isomers) [Compound 833]
- Ki [1]: ≤ 10 nM
- Percent Increase in Gastric Emptying After Oral Administration ([3]; dose 3 mg/kg): 6%
- Human Plasma Protein Binding (%) ([4]; test concentration 3 μg/mL): 77.4%
- Rat Plasma Protein Binding (%) ([5]; test concentration 3 μg/mL): 94.0%

SMILES: C[C@@H]1CN[C@@H](C2CC2)C(=O)N(C)[C@H](C)C(=O)N[C@H](Cc2ccc(O)cc2)C(=O)N[C@@H](C)CCc2ccccc2O1 [Compound 808]
- Ki [1]: ≤ 100 nM
- Elimination Half-life (t1/2, rat, min) [2]: 238 min
- Oral Bioavailability (rat, % F) [2]: 18 % F
- Percent Increase in Gastric Emptying After Oral Administration ([3]; dose 1 mg/kg): 18%
- Percent Increase in Gastric Emptying After Oral Administration ([3]; dose 3 mg/kg): 37%
- Percent Increase in Gastric Emptying After Oral Administration ([3]; dose 10 mg/kg): 40%
- Human Plasma Protein Binding (%) ([4]; test concentration 5 μg/mL): 99.9%
- Rat Plasma Protein Binding (%) ([5]; test concentration 5 μg/mL): 89.2%

Reference: patent US10258602B2 (Ocera Therapeutics, Inc., priority 2007, dated 2019)
